Assay results taken from US7868013B2, “Cycloalkyl substituted pyrimidinediamine compounds and their uses” (Rigel Pharmaceuticals, Inc., priority 2004, dated 2011).
Where a name gives a salt, the structure may show the parent alone. Read-outs that look alike come from different tables or passages of the source.

Legend:
[1] = system: H1299 (non-small cell lung carcinoma); experiment: In vitro antiproliferation assay, H1299 cells (TABLE 1 6 point assay; TABLE 2); format: cell-based
Procedure: (§1) Certain compounds were tested against other cell types for their ability to inhibit proliferation in standard antiproliferation assays.

A549 (lung carcinoma) = experiment: In vitro antiproliferation assay, A549 cells (TABLE 1 6 point assay; TABLE 2); format: cell-based
Procedure: as §1

[2] = Homo sapiens, NCI-H1299, H1299 cells, 6 point assay, read-out: H1299, 6pt (IC50, inhibition of proliferation)
[3] = Homo sapiens, A549, A549 cells, 6 point assay, read-out: A549, 6pt (IC50, inhibition of proliferation)
[4] = Homo sapiens, NCI-H1299, 6 point assay, H1299 cells, read-out: IC50, H1299 cells
[5] = Homo sapiens, A549, 6 point assay, A549 cells, read-out: IC50, A549 cells

SMILES	IC50 [1, 2] [µM]	IC50 (A549 (lung carcinoma); [3]) [µM]	IC50 [1, 4] [µM]	IC50 (A549 (lung carcinoma); [5]) [µM]	other results
NC(=O)[C@@H]1[C@H](Nc2nc(Nc3ccc(OC(F)(F)F)c(Cl)c3)ncc2F)[C@H]2C=C[C@@H]1C2 [compound 148, (1R,2R,3S,4S)-N4-(3-Aminocarbonylbicyclo[2.2.1]hept-5-en-2-yl)-N2-(3-chloro-4-trifluoromethoxyphenyl)-5-fluoro-2,4-pyrimidinediamine]	1 to 10	1 to 10	–	–	–
Cc1cc(Nc2ncc(F)c(N[C@H]3C=CC[C@H]3C(N)=O)n2)ccc1N1CCN(C)CC1 (racemic) [Compound 286, Racemic-cis-N4-(2-aminocarbonylcyclopent-4-en-1-yl)-5-fluoro-N2-[3-methyl-4-(4-methylpiperazin-1-yl)phenyl]-2,4-pyrimidinediamine]	–	–	0.1 to 1	0.1 to 1	–
Cc1ccc(Nc2ncc(F)c(N[C@H]3[C@@H](C(N)=O)[C@@H]4C=C[C@H]3C4)n2)cc1OCC(=O)N1CCOCC1 [compound 125, (1R,2R,3S,4S)-N4-(3-Aminocarbonylbicyclo[2.2.1]hept-5-en-2-yl)-5-fluoro-N2-[4-methyl-3-(morpholin-4-ylcarbonylmethyleneoxy)phenyl]-2,4-pyrimidinediamine]	≤ 0.1	≤ 0.1	–	–	–
CN1CCN(c2ccc(Nc3ncc(F)c(NC4CCCC4C(N)=O)n3)cc2C(F)(F)F)CC1 (stereo not drawn) [compound 207, (cis)-N4-(2-Carboxamidocyclopent-1-yl)-5-fluoro-N2-[4-(4-methylpiperazino)-3-trifluoromethylphenyl]-2,4-pyrimidinediamine Bis Hydrogen Chloride Salt]	–	–	–	–	IC50 ([1]; 6 point assay, H1299 cells, read-out: IC50, H1299 cells): 1 to 10 µM; IC50 (A549 (lung carcinoma); 6 point assay, A549 cells, read-out: IC50, A549 cells): 0.1 to 1 µM
Cc1cc(Nc2ncc(F)c(N[C@@H]3[C@H](C(N)=O)[C@@H]4C=C[C@H]3C4)n2)ccc1N1CCN(C)CC1 [compound 154]	0.1 to 1	0.1 to 1	–	–	–
CNC(=O)COc1cc(Nc2ncc(F)c(N[C@H]3CCC[C@H]3C(N)=O)n2)ccc1C (racemic) [compound 106, Racemic-cis-N4-(2-aminocarbonylcyclopent-1-yl)-5-fluoro-N2-[4-methyl-3-(N-methylamino)carbonylmethyleneoxyphenyl]-2,4-pyrimidinediamine]	1 to 10	1 to 10	–	–	–

More lines, main results first:

IC50 [1, 2] [µM]	IC50 (A549 (lung carcinoma); [3]) [µM]	IC50 [1, 4] [µM]	IC50 (A549 (lung carcinoma); [5]) [µM]	SMILES	other results
–	–	0.1 to 1	0.1 to 1	Cc1cc(Nc2ncc(F)c(NC3CCCC3C(N)=O)n2)cc(C)c1O (stereo not drawn) [compound 213, (cis)-N4-(2-Carboxamidocyclopent-1-yl)-N2-(3,5-dimethyl-4-hydroxyphenyl)-5-fluoro-2,4-pyrimidinediamine]	–
–	–	0.1 to 1	0.1 to 1	CC(=O)N1CCN(c2ccc(Nc3ncc(F)c(NC4CCCC4C(N)=O)n3)cc2)CC1 (stereo not shown) [compound 196, N2-[4-(4-Acetylpiperazino)phenyl]-N4-(2-carboxamidocyclopentyl)-5-fluoro-2,4-pyrimidinediamine]	–
1 to 10	0.1 to 1	–	–	Cc1cc(Nc2ncc(F)c(N[C@@H]3[C@H](C(=O)NC4CC4)[C@H]4C=C[C@@H]3C4)n2)ccc1N1CCN(C)CC1 [compound 191, (1S,2S,3R,4R)-N4-[3-(N-Cyclopropyl)aminocarbonylbicyclo[2.2.1]hept-5-en-2-yl]-5-fluoro-N2-[3-methyl-4-(4-methylpiperazin-1-yl)phenyl]-2,4-pyrimidinediamine]	–
–	–	0.1 to 1	0.1 to 1	COc1cc(Nc2ncc(F)c(N[C@@H]3[C@H](C(N)=O)[C@H]4C=C[C@@H]3C4)n2)ccc1N1C(=O)CN(C)CC1=O (racemic) [compound 266, Racemic-(2-exo,3-exo)-N4-(3-aminocarbonylbicyclo[2.2.1]hept-5-en-2-yl)-5-fluoro-N2-[3-methoxy-4-(4-methyl-2,6-dioxopiperazino)phenyl]-2,4-pyrimidinediamine]	–
0.1 to 1	0.1 to 1	–	–	Cn1ccc2cc(Nc3ncc(F)c(NC4C5C=CC(C5)C4C(N)=O)n3)ccc21 (racemic) [compound 161, Racemic-(2-exo,3-exo)-N4-[3-aminocarbonylbicyclo[2.2.1]hept-5-ene-2-yl)-5-fluoro-N2-(1-methylindol-5-yl)-2,4-pyrimidinediamine]	–
